{
  "source": "patent US20040220086A1",
  "about": "“Methods and materials for targeting and affecting selected cells” (priority 2001, published 2004)",
  "key": {"[1]": {"conditions": "cited from earlier work"}, "[2]": {"system": "NADH-oxidase", "conditions": "plasma membrane redox enzyme; cited from earlier work"}, "[3]": {"system": "human mesothelioma cells", "conditions": "cited from earlier work"}, "[4]": {"system": "normal or transferrin receptor-negative cells", "conditions": "cited from earlier work"}, "[5]": {"system": "drug-resistant HL60 cells", "conditions": "cited from earlier work"}, "[6]": {"system": "leukemic cells", "conditions": "cells from peripheral blood and marrow of leukemia patients; cited from earlier work"}, "[7]": {"system": "drug-resistant K562 cells", "conditions": "cited from earlier work"}, "[8]": {"system": "leukemic cells in peripheral blood", "conditions": "cited from earlier work"}, "[9]": {"system": "metastatic sarcoma", "conditions": "person, 2000 as printed", "method": "This concerns a person with metastatic disease from a sarcoma of their right atrium who was treated beginning August, 2000 by using conventional protocols."}, "[10]": {"conditions": "nude mice; cited from earlier work"}},
  "data": [
    {"molecule": "O=C(O)CCCc1ccc(N(CCCl)CCCl)cc1", "note": "[chlorambucil]", "values": [
      {"measurement": "survival of treated mice", "setting": "[1]", "value": "died"}
    ]},
    {"molecule": "COc1cccc2c1C(=O)c1c(O)c3c(c(O)c1C2=O)C[C@@](O)(C(=O)CO)C[C@@H]3O[C@H]1C[C@H](N)[C@H](O)[C@H](C)O1", "note": "[doxorubicin, reference compound]", "values": [
      {"measurement": "inhibition of NADH-oxidase", "setting": "[2]", "value": "efficient inhibitor"}
    ]},
    {"molecule": "human transferrin-chlorambucil conjugates: human transferrin conjugated to chlorambucil, reference 51", "values": [
      {"measurement": "survival of treated mice", "setting": "[1]", "value": "survived"},
      {"measurement": "toxicity compared with free chlorambucil", "setting": "[1]; mice", "value": "less toxic"}
    ]},
    {"molecule": "transferrin-doxorubicin conjugates", "values": [
      {"measurement": "survival compared with free doxorubicin", "setting": "[3]; nude mice bearing drug-resistant human tumors", "value": "survive longer"},
      {"measurement": "life prolongation compared to animals treated only with doxorubicin", "setting": "[3]; nude mice, human mesothelioma cells", "value": "significantly prolonged life"},
      {"measurement": "binding to cells", "setting": "[4]", "value": "do not bind"},
      {"measurement": "killing of cells resistant to doxorubicin", "setting": "[5]", "value": "effective in killing"},
      {"measurement": "selective killing of leukemic cells", "setting": "[6]", "value": "kill selectively"},
      {"measurement": "inhibition of NADH-oxidase", "setting": "[2]", "value": "inhibit"},
      {"measurement": "killing of cells resistant to doxorubicin", "setting": "[7]", "value": "effective in killing"},
      {"measurement": "decrease of number of leukemic cells in peripheral blood", "setting": "[8]; 7 patients, within 10-days following therapy", "value": 86, "unit": "%"},
      {"measurement": "extension of disease by bone marrow biopsies before and after treatment", "setting": "[8]; acute leukemia patients", "value": "no extension of disease"},
      {"measurement": "toxic effects", "setting": "[8]; seven acute leukemia patients, 1 mg/day intravenously for 5 days", "value": "no toxic effects"},
      {"measurement": "radiological evidence of tumor", "setting": "[9]; by January", "value": "no radiological evidence of tumor"},
      {"measurement": "metastatic lesions of the lungs", "setting": "[9]; treatment begun November 2000, by January", "value": "substantially cleared"}
    ]},
    {"molecule": "neocarzinostatin (protein, UniProt P0A3R9 35-147, looked up, with enediyne chromophore) Neocarzinostatin: AAPTATVTPSSGLSDGTVVKVAGAGLQAGTAYDVGQCAWVDTGVLACNPADFSSVTADANGSASTSLTVRRSFEGFLFDGTRWGTVDCTTAACQVGLSDAAGNGPEGVAISFN", "values": [
      {"measurement": "half-life", "setting": "[10]", "value": 7, "unit": "min"}
    ]}
  ]
}
